Marks after values point to notes of the source that are not given here.
Tests used:
[1] = system: calcium entry in resting cells; experiment: Intracellular Ca2+ in resting cells in the presence of extracellular Ca2+; format: cell-based, human; conditions: 10 μM, extracellular Ca2+ present, 300 s of observation, compared to control
Experimental: We also investigated whether 37 required the triggered opening of the Orai channel to elicit its effect. […] The same effect was also evident at 3 (118.2%) and 1 μM (116.7%) but was not detected at concentrations above 10. In particular, at 30 and 100 μM, 37 acts as weak SOCE inhibitor, with a percentage of residual activity of about 70%.

[2] = system: Store-operated calcium entry (SOCE); experiment: SOCE in HEK cells, tBhQ store depletion and Ca2+ re-addition, Fura-2 calcium imaging; format: cell-based, human; conditions: for percentage of SOCE activity: compared to control
Experimental: With this approach, 24 oxadiazole-bearing pyrazoles were synthesized and tested in human embryonic kidney (HEK) cells for SOCE inhibition. […] After 600 s, Ca^2+ was added and intracellular levels were measured in fluorescence microscopy with the calcium dye Fura-2. […] For these compounds, the cell viability was therefore evaluated. An MTT assay was performed and the compounds that affected cell viability by more than 25% at 10 μM were discarded (23, 31, and 33). […] According to both activity and cytotoxicity, for the selected five compounds, the representative traces are depicted in Figure 3.
Human embryonic kidney (Hek) cells were obtained from ATCC (Rockville, MD, USA) and were cultured in Dulbecco’s Modified Eagle’s Medium (DMEM; Sigma-Aldrich, Italy), supplemented with 10% heat-inactivated FBS (Gibco, Italy), L-glutamine […] (Sigma-Aldrich, Italy), 10 U/mL penicillin, and […] streptomycin (Sigma-Aldrich, Italy) at 37 °C, under a 5% CO2 humidified atmosphere. […]
(KRB, 135 mM NaCl, 5 mM KCl, 0.4 mM KH2PO4, 1 mM MgSO4, 5.5 mM glucose, 20mM HEPES, pH 7.4) containing 2 mM CaCl2 (30 min, room temperature). After which, cells were washed and incubated with KRB for other 30 min to allow de-esterification of […]. To measure SOCE, cells were depleted of calcium in the endoplasmic reticulum with 2,5-t-butylhydroquinone (tBhQ, 50 […]
For calcium imaging experiments, Hek cells were plated onto pre-treated poli-L-lysine (P4832, Sigma-Aldrich, Italy) glass coverslips of 24 mm in 6-well plates Cells were loaded with 5 µM of Fura-2 AM, 0.02% of Pluronic-127 (Life technologies, Italy) and 10 µM of sulfinpyrazone (Sigma-Aldrich, Italy) in KRB containing 2 mM CaCl2 for 30 min at RT. Cells were then washed once with KRB for 15 min for de-esterification of Fura-2 AM.
Coverslips were mounted into the acquisition chamber and placed on the stage of a Leica DMI6000 epifluorescent microscope equipped with S Fluor ×40/1.3 objective. Fura-2 AM was excited by alternate 340 and 380 nm using a Polychrome IV monochromator (Till Photonics, Germany), and the probe emission light was filtered through 520/20 bandpass filter and collected by a cooled CCD camera (Hamamatsu, Japan). The fluorescence signals were acquired and processed using MetaFluor software (Molecular Device, Sunnyvale, CA, USA). To quantify the differences in the amplitudes of Ca2+ transients, the ratio values were normalized using the formula ΔF/F0. […]
In calcium imaging experiments, data are presented as Mean +/- standard error (SEM) or Median and interquartile range (IQR). The normality of data distributions was assessed using the Shapiro−Wilk test. Nonparametric (Mann−Whitney U test and one-way) statistical analysis was used for comparisons of data. All statistical assessments were two-sided and a value of P <0.05 was considered statistically significant. Statistical analyses were performed using GraphPad Prism software (GraphPad Software, Inc., USA).

[3] = In vitro hepatic metabolic stability in MLS9 fraction with NADPH; format: in vitro ADME, mouse; conditions: after 1 h of incubation
Experimental: The five selected inhibitors (22, 27, 29, 32, and 42) and the identified SOCE enhancer (37) were then evaluated for their in vitro hepatic metabolic stability. To this aim, the candidates were incubated in MLS9 fraction supplied with NADPH and the residual substrate was measured after 1 h. Under these conditions, the oxadiazole-bearing pyrazoles resulted overall metabolically stable, with only two compounds affording a residual substrate lower than 80% and the remaining molecules higher than 90% after incubation (Table 1 and Supporting Information). In contrast, Pyr3 and CIC-37, which suffered from hydrolysis of the ester function, provided a residual substrate of 43 and 74%, respectively (Table 1).[35] Similarly, the residual substrate of Synta66 in MLM is of 15%, due to an important hydrolysis of the amide group, absent in our class (Table 1).[39]
In vitro metabolism and purity of lead compounds
In vitro metabolism studies
Mouse liver S9 (MLS9) (pooled male mouse CD-1, protein concentration: 20 mg/mL) were purchased from Corning B.V. Life Sciences (Amsterdam, The Netherlands) and used throughout this study. The standard incubation mixture (250 μL final volume) was carried out in a 50 mM TRIS (tris[hydroxymethyl]-aminomethane) + 150 mM KCl buffer (pH 7.4) containing 3.3 mM MgCl2, 1.3 mM β-NADP-Na 2, 3.3 mM glucose 6-phosphate, 0.4 Units/mL glucose 6-phosphate dehydrogenase (NADPH regenerating system), 5 μL of acetonitrile ([…]), and the substrate compounds at a concentration of 50 µM. After pre-equilibration of the mixture, an appropriate volume of MLS9 suspension was added to give a final protein concentration of 1.5 mg/mL. The mixture was shaken for 60 min at 37 °C. Each incubation was stopped by addition of 250 μL of ice-cold acetonitrile, vortexed, and centrifuged at 13000 rpm for 10 min. Control incubations were carried out without the presence of MLS9 suspension or cofactors or in absence of the substrate.
LC-UV method for purity and metabolic stability data determination: a Shimadzu HPLC system (Shimadzu, Kyoto, Japan), consisting of two LC-10AD Vp module pumps, an SLC-10A Vp system controller, an SIL-10AD Vp autosampler, and a DGU-14-A on-line degasser were used for the analysis. The SPD-M10Avp photodiode array detector was used to detect the analytes. LC-Solution 1.24 software was used to process the chromatograms.
• Column: Phenomenex Kinetex XB C18, 150 × 4.6 mm (5 µm d.p.) protected with a SecurityGuard® (Torrance, CA, USA).
A: 0.2% formic acid in water;
B: 0.2% formic acid in acetonitrile.

MLS9 stability (residual substrate) [3]: 91% ^b
SMILES: CCCCCC(=O)Nc1ccc(-n2ncc(-c3nc(C)no3)c2C(F)(F)F)cc1 [compound 37]
calcium entry in resting cells [1]: did not elicit any significant calcium entry
percentage of SOCE activity ([2]; 1 μM): 116.7%
percentage of SOCE activity ([2]; 3 μM): 118.2%
area under the curve (AUC) of calcium entry ([2]; 10 μM, vs control): significantly increased
peak amplitude of calcium entry ([2]; 10 μM, vs control): significantly increased
slope of the Ca2+-rise ([2]; 10 μM, vs control): without affecting
activity at 30 µM ([2]; Homo sapiens, HEK293, 30 μM, read-out: percentage of residual activity (SOCE)): ~70%
activity at 100 µM ([2]; Homo sapiens, HEK293, 100 μM, read-out: percentage of residual activity (SOCE)): ~70%
activity at 10 µM ([2]; Homo sapiens, HEK293, compound 10 μM, tBhQ 50 μM, vs control, mean ± SEM of three experiments, read-out: % SOCE residual activity (10 μM)): 146 ± 4.5%

From article PMC8040252, “1,2,4-Oxadiazole-Bearing Pyrazoles as Metabolically Stable Modulators of Store-Operated Calcium Entry” (ACS Medicinal Chemistry Letters, 2021)
